# Measured values as given in patent US20210322442A1, “LONG-TERM RE-ABSORBABLE SU[…] WITH CONTROLED PRE-CONCENTRATED PHARMACOLOGICALLY ACTIVE POLYMER SUBSTANCE RELEASE FOR TREATING ENDOMETRIOSIS” (priority 2020, published 2021).
# Experiments:
# [1] = system: endometriosis; test: clinical follow-up of about 1,000 patients treated with gestrinone implants; type: in vivo
# Description: Research was conducted to assess the effectiveness of using the gestrinone implants described here for the treatment of endometriosis. About 1,000 patients with different degrees of the disease were followed up in clinical practice and the dose used was 1 to 3 implants. […] In these patients, treatment can be used only.
# [2] = system: endometriosis; conditions: cited from earlier work
smiles,measurement,setting,value
C#C[C@]1(O)CC[C@H]2[C@@H]3CCC4=CC(=O)CCC4=C3C=C[C@@]21CC [gestrinone],carrier protein SHBG in the patient,"[1]; mechanism of action, stated with an increase in free circulating testosterone",reduction in the carrier protein SHBG
same,quality of life of patients,"[1]; observed in practice: mood, libido, reasoning and decision making capacity, lean mass",improves the quality of life of patients as a whole
same,free circulating testosterone,[1]; result of SHBG reduction,increase in free circulating testosterone
same,"tolerability, oral dose",[2],up to 5 mg three times a week
